Measurements published in patent publication US8329686B2, “Isatin analogues and uses therefor” (Washington University, priority 2006, dated 2012).
Read-outs that look alike come from different tables or passages of the source. Blank lines part the entries; values can stand above or below the compound they belong to.

Tests used:
Format in all cases: biochemical
caspase 7 = target: T1, caspase 7 (Homo sapiens, UniProt P55210); assay: Enzyme inhibition assay, caspase 7 (fluorogenic Ac-DEVD-AMC)
T1 construct: purchased Sigma-Aldrich (St. Louis, Mo.)
T1 sequence (P55210 24-198 limits assumed): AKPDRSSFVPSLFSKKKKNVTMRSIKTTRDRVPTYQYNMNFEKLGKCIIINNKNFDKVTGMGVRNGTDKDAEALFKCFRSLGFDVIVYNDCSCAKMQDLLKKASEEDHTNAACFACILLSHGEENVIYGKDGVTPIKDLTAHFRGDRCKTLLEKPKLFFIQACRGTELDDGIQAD
T1 sequence (P55210 207-303 limits assumed): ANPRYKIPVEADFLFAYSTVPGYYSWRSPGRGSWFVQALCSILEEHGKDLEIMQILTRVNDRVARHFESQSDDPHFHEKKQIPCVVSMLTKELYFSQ

caspase 8 = target: T2, caspase 8 (Homo sapiens, UniProt Q14790); assay: Enzyme inhibition assay, caspase 8 (fluorogenic Ac-IETD-AMC)
T2 construct: purchased Sigma-Aldrich (St. Louis, Mo.)

caspase 1 = target: T3, caspase 1 (Homo sapiens, UniProt P29466); assay: Enzyme inhibition assay, caspase 1 (fluorogenic Ac-YVAD-AMC)
T3 construct: purchased BIOMOL Research Laboratories (Plymouth Meeting, Pa.)
T3 sequence (P29466 120-297 limits assumed): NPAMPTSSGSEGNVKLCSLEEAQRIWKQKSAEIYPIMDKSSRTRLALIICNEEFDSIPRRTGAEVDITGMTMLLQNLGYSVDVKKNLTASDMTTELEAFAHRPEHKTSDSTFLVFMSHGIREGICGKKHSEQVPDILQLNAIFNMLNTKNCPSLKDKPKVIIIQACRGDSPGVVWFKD
T3 sequence (P29466 317-404 limits assumed): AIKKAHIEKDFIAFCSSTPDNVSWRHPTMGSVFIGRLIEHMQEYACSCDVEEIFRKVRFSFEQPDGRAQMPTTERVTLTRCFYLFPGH

caspase 6 = target: T4, caspase 6 (Homo sapiens, UniProt P55212); assay: Enzyme inhibition assay, caspase 6 (fluorogenic Ac-VEID-AMC)
T4 construct: purchased Sigma-Aldrich (St. Louis, Mo.)
T4 sequence (P55212 24-179 limits assumed): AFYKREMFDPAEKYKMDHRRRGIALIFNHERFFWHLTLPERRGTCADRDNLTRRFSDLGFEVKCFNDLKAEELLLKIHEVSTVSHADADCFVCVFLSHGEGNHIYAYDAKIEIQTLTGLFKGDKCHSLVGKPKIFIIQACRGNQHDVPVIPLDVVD
T4 sequence (P55212 194-293 limits assumed): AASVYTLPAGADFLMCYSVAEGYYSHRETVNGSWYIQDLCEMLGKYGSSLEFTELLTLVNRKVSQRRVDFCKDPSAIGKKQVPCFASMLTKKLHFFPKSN

caspase-3 = target: T5, caspase-3 (Homo sapiens, UniProt P42574); assay: Enzyme inhibition assay, caspase 3 (fluorogenic Ac-DEVD-AMC)
T5 construct: purchased Sigma-Aldrich (St. Louis, Mo.)
T5 sequence (P42574 29-175 limits assumed): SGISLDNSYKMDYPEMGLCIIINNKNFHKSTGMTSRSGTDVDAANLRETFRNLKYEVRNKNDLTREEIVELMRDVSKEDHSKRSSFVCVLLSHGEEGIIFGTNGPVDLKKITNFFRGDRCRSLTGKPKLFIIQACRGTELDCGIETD
T5 sequence (P42574 176-277 limits assumed): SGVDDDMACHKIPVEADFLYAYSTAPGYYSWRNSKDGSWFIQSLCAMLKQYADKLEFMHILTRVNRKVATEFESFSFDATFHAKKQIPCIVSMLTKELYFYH

[1] = Table 6, read-out: IC50 (nM) caspase-7
[2] = Table 6, read-out: IC50 (nM) caspase-8
[3] = Table 6, read-out: IC50 (nM) caspase-1
[4] = Table 6, read-out: IC50 (nM) caspase-6
[5] = Table 6, read-out: IC50 (nM) caspase-3
[6] = Table 1, read-out: IC50 (nM) Caspase 8
[7] = Table 7, read-out: IC50 (nM) Casp-8
[8] = Table 1, read-out: IC50 (nM) Caspase 1
[9] = Table 7, read-out: IC50 (nM) Casp-1
[10] = Table 2, read-out: IC50 (nM) Caspase 7
[11] = Table 7, read-out: IC50 (nM) Casp-7
[12] = Table 2, read-out: IC50 (nM) Caspase 8
[13] = Table 2, read-out: IC50 (nM) Caspase 1
[14] = Table 2, read-out: IC50 (nM) Caspase 6
[15] = Table 7, read-out: IC50 (nM) Casp-6
[16] = Table 2, read-out: IC50 (nM) Caspase 3
[17] = Table 7, read-out: IC50 (nM) Casp-3

T2 sequence (Q14790 217-374 limits assumed): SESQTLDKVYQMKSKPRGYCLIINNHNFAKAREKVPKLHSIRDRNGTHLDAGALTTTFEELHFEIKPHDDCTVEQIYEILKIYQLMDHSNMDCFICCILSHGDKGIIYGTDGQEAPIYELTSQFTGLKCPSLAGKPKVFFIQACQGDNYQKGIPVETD
T2 sequence (Q14790 385-479 limits assumed): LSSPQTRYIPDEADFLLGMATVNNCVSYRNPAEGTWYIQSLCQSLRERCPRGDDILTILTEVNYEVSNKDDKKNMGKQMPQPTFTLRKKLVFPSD

- IC50 (caspase 7; [1]): 15.1 ± 0.1 nM
- IC50 (caspase 8; [2]): > 50000 nM
- IC50 (caspase 1; [3]): > 10000 nM
- IC50 (caspase 6; [4]): > 5000 nM
- IC50 (caspase-3; [5]): 8.4 ± 2 nM
SMILES: O=C1C(=O)N(Cc2ccc(F)cc2)c2ccc(S(=O)(=O)N3CCCC3COc3cccnc3)cc21 (stereo not drawn) [Compound 21e, 1-(4-Fluorobenzyl)-5-(2-(pyridin-3-yl-oxymethyl)-pyrrolidine-1-sulfonyl)-1H-indole-2,3-dione]

- IC50 (caspase 7; [1]): 142 ± 22.6 nM
- IC50 (caspase 8; [2]): > 50000 nM
- IC50 (caspase 1; [3]): > 5000 nM
- IC50 (caspase 6; [4]): > 5000 nM
- IC50 (caspase-3; [5]): 20.4 ± 1.7 nM
SMILES: O=C1Nc2ccc(S(=O)(=O)N3CCCC3COc3ccncc3)cc2C1=O (stereo not drawn) [Compound 23, 5-(2-(Pyridin-4-yl-oxymethyl)-pyrrolidine-1-sulfonyl)-1H-indole-2,3-dione]

SMILES: O=C1C(=O)N(Cc2ccc(Br)cc2)c2ccc(S(=O)(=O)N3CCCC3COc3ccccc3)cc21 (stereo not drawn) [Compound 25d, 1-(4-Bromo-benzyl)-5-(2-Phenoxymethyl-pyrrolidine-1-sulfonyl)-1H-indole-2,3-dione]
- IC50 (caspase 7; IC50 (nM) Casp-7, Table 7): 34.8 ± 1.4 nM
- IC50 (caspase 7; IC50 (nM) Caspase 7, Table 1): 34.8 ± 1.4 nM
- IC50 (caspase 8; [6]): > 50000 nM
- IC50 (caspase 8; [7]): > 50000 nM
- IC50 (caspase 1; [8]): > 15000 nM
- IC50 (caspase 1; [9]): > 15000 nM
- IC50 (caspase 6): 8900 nM
- IC50 (caspase-3; IC50 (nM) Casp-3, Table 7): 9.85 ± 0.9 nM
- IC50 (caspase-3; IC50 (nM) Caspase 3, Table 1): 9.9 ± 0.9 nM

SMILES: N#CC(C#N)=C1C(=O)Nc2ccc(S(=O)(=O)N3CCCC3COc3ccccc3)cc21 (stereo not drawn) [Compound 26, 2-[2-Oxo-5-(2-phenoxymethyl-pyrrolidine-1-sulfonyl)-1,2-dihydro-indol-3-yl-idene]-malononitrile]
- IC50 (caspase 7; [10]): 1580 nM
- IC50 (caspase 7; [11]): 1580 ± 163 nM
- IC50 (caspase 7; read-out: IC50 for caspase-7): 1580 nM
- IC50 (caspase 8; [12]): > 50000 nM
- IC50 (caspase 8; [7]): > 50000 nM
- IC50 (caspase 1; [13]): 1830 nM
- IC50 (caspase 1; [9]): 1830 ± 128 nM
- IC50 (caspase 6; [14]): 407 ± 15 nM
- IC50 (caspase 6; [15]): 407 ± 15 nM
- IC50 (caspase-3; [16]): 272 ± 25 nM
- IC50 (caspase-3; [17]): 272 ± 24.7 nM
- IC50 (caspase-3; read-out: IC50 for caspase-3): 272 nM

SMILES: CN1C(=O)C(=C(C#N)C#N)c2cc(S(=O)(=O)N3CCCC3COc3ccccc3)ccc21 (stereo not drawn) [Compound 27a, 2-[1-Methyl-2-oxo-5-(2-phenoxymethyl-pyrrolidine-1-sulfonyl)-1,2-dihydro-indol-3-yl-idene]-malononitrile]
- IC50 (caspase 7; [10]): 785 ± 276 nM
- IC50 (caspase 7; [11]): 785 ± 276 nM
- IC50 (caspase 8; [12]): > 50000 nM
- IC50 (caspase 8; [7]): > 50000 nM
- IC50 (caspase 1; [13]): 2820 nM
- IC50 (caspase 1; [9]): 2820 ± 248 nM
- IC50 (caspase 6; [14]): 698 ± 94 nM
- IC50 (caspase 6; [15]): 698 ± 94 nM
- IC50 (caspase-3; [16]): 119 ± 4 nM
- IC50 (caspase-3; [17]): 119 ± 4 nM

SMILES: N#CC(C#N)=C1C(=O)N(Cc2ccccc2)c2ccc(S(=O)(=O)N3CCCC3COc3ccccc3)cc21 (stereo not drawn) [Compound 27b, 2-[1-Benzyl-2-oxo-5-(2-phenoxymethyl-pyrrolidine-1-sulfonyl)-1,2-dihydroindol-3-yl-idene]-malononitrile]
- IC50 (caspase 7; IC50 (nM) Casp-7, Table 7): 51.7 ± 6.2 nM
- IC50 (caspase 7; IC50 (nM) Caspase 7, Table 2): 51.7 ± 6.2 nM
- IC50 (caspase 7; IC50 for caspase-7): 51.7 nM
- IC50 (caspase 8; [12]): > 50000 nM
- IC50 (caspase 8; [7]): > 50000 nM
- IC50 (caspase 1): 6220 nM
- IC50 (caspase 6): 918 ± 151 nM
- IC50 (caspase-3; IC50 (nM) Casp-3, Table 7): 27.8 ± 2.5 nM
- IC50 (caspase-3; IC50 (nM) Caspase 3, Table 2): 27.8 ± 2.5 nM
- IC50 (caspase-3; IC50 for caspase-3): 27.8 nM

SMILES: O=C1C(=O)N(Cc2ccc(Br)cc2)c2ccc(S(=O)(=O)N3CCCC3COc3cccnc3)cc21 (stereo not drawn) [Compound 28c, 1-(4-Bromo-benzyl)-5-[2-(pyridin-3-yl-oxymethyl)-pyrrolidine-1-sulfonyl]-1H-indole-2,3-dione]
- IC50 (caspase 7; IC50 (nM) Casp-7, Table 7): 6.6 ± 0.1 nM
- IC50 (caspase 7; IC50 (nM) Caspase 7, Table 1): 6.6 ± 0.1 nM
- IC50 (caspase 8; [6]): > 50000 nM
- IC50 (caspase 8; [7]): > 50000 nM
- IC50 (caspase 1; [8]): > 15000 nM
- IC50 (caspase 1; [9]): > 15000 nM
- IC50 (caspase-3; IC50 (nM) Casp-3, Table 7): 3.6 ± 0.5 nM
- IC50 (caspase-3; IC50 (nM) Caspase 3, Table 1): 3.6 ± 0.5 nM

- potency as caspase-3/7 inhibitors (in words) (caspase-3): low potency
SMILES: O=C1Nc2ccc(S(=O)(=O)N3CCC[C@H]3COc3ccccc3)cc2C1=NO [WC(II)-51]

- IC50 (caspase 8; [6]): > 50000 nM
- IC50 (caspase 1; [8]): > 15000 nM
- IC50 (caspase 6; Table 1, read-out: IC50 (nM) Caspase 6): 3720 nM
- IC50 (caspase-3; Table 1, read-out: IC50 (nM) Caspase 3): 9.7 ± 1.3 nM
SMILES: O=C1C(=O)N(Cc2ccc(OCCF)cc2)c2ccc(S(=O)(=O)N3CCCC3COc3ccccc3)cc21 (stereo not drawn) [WC-II-89, 1-[4-(2-Fluoroethoxy)-benzyl]-5-(2-phenoxymethyl-pyrrolidine-1-sulfonyl)-1H-indole-2,3-dione]

- IC50 (caspase-3; [16]): > 1000 nM
- potency as caspase-3/7 inhibitors (in words) (caspase-3): low potency
SMILES: COc1ccc(CN2C(=O)C(=CC#N)c3cc(S(=O)(=O)N4CCC[C@H]4COc4ccccc4)ccc32)cc1 [WC-II-99]
